Results on 18 compounds are retold here after patent publication US5872115A, “2-ureido-benzamide derivatives” (Grelan Pharmaceutical Co. Ltd., priority 1995, dated 1999).

The test system of one data set is ACAT of HepG2 microsome. The data set is described as follows: In-vitro test using Hep G2 microsome (ACAT inhibition). It counts as biochemical, human. On the procedure: (1) In-vitro Test Using Hep G2 Microsome
ACAT enzyme fraction was prepared from microsome of human derived hepatoma Hep G2 cell according to Sandra's method [Journal of Lipid Research, 27, 875 (1986)].
Microsome was suspended at a concentration of 200 μg protein/20 μl in 0.1M phosphate buffer solution (pH7.4) and the suspension was preincubated at 37° C. for 5 minutes after addition of 10 μl of each test compound dissolved in 0.1M phosphate buffer solution containing bovine serum albmin (BSA). Then, the reaction was initiated by the addition of 5 nmoles of labeled [^14 C]-oleoyl-CoA dissolved in 20 μl of the said phosphate buffer solution containing BSA and the reaction was stopped by the addition of 20 μl of 2N HCl after 10 minutes. [^14 C] cholesterol-oleate formed was separated by thin-layer chromatography and the radioactivity was counted with liquid scintillation counter.
(§1) ACAT inhibitory activities of the test compounds were shown as IC50 values.

Another data set has as its target T1, ACAT of THP-1 cells (Homo sapiens, UniProt P35610).
T1 construct: differentiated into macrophage-like cells by phorbol ester; endogenous in cells; host or cells: THP-1 (human leukemia), intact cells differentiated by phorbol ester
T1 sequence (P35610 1-550): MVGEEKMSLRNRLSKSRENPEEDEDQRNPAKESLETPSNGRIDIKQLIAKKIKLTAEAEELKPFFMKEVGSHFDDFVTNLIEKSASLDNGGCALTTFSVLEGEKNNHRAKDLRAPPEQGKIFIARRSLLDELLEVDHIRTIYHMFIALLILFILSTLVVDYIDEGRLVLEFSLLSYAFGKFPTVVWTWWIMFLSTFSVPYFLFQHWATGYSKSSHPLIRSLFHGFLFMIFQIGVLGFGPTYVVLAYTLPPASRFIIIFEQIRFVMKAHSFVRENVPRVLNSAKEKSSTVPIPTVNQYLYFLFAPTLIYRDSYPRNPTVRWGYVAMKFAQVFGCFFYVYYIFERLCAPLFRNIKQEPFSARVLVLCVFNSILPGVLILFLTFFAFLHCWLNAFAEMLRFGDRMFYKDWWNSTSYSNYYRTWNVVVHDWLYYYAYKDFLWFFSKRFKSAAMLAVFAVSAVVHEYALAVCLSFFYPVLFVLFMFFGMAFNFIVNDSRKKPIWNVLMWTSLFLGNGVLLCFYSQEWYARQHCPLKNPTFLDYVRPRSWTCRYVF
The data set is described as follows: In-vitro test using THP-1 intact cell (ACAT inhibition). The class given is cell-based. The conditions noted are these: read-out: IC50 THP1 (intact cell). On the procedure:
(2) In-vitro Test Using THP-1 Intact Cell
About 2 million cells of human leukemia cell line, THP-1 were seeded in a well with 2 ml of medium and differentiated into macrophage-like cells by phorbol ester. Then, the cells were washed with phosphate-buffered saline (PBS) solution and the medium was replaced by fresh medium supplemented with 10% of lipoprotein-deficient serum. After the addition of each test compound dissolved in dimethyl sulfoxide and 100 μg protein-containing human low density lipoprotein (LDL), the reaction was initiated by the addition of 10 nmoles of labeled [^14 C]oleic acid and 10 nmoles of oleic acid complexed with BSA in PBS solution. After 22 hours, the reaction was stopped by removal the medium and CHCl3 -MeOH (2:1) were added to the cell suspension in order to extract lipids.
Intracellular [^14 C] cholesterol-oleate formed was separated by thin-layer chromatography and the radioactivity was counted with lipid scintillation counter.
as §1

Data set [1] can be described thus: Acute toxicity, male ICR strain mouse. The class given is in vivo. The conditions noted are these: 1000 mg/kg orally, seven days after administration. On the procedure:
(1) Acute toxicity: Nine compounds (Example Nos. 1, 2, 5, 6, 12, 19, 28, 31 and 45) were tested by using male ICR strain mouse weighing 23.0±0.7 g.

In data set [2] the target is T2, THP-1 microsomal ACAT (Homo sapiens, UniProt P35610).
T2 construct: ACAT enzyme fraction was prepared from microsome of human leukemia THP-1 cell; endogenous in cells; host or cells: THP-1 (human leukemia), microsomes
T2 sequence (P35610 1-550): T1 sequence (P35610 1-550)
The data set can be described thus: In vitro test using THP-1 microsome (ACAT inhibition). The conditions noted are these: THP-1 microsome; read-out: IC50 THP1 microsome. The class given is biochemical.
Description: (4) In Vitro Test Using THP-1 Microsome
Then, the reaction was initiated by the addition of 5 nmoles of labeled [^14 C] oleoyl-CoA dissolved in 20 μl of said phosphate buffer solution containing BSA and the reaction was stopped by the addition of 20 μl of 2N HCl after 10 minutes. [^14 C] cholesterol-oleate formed was separated by thin-layer chromatography and the radioactivity was counted with liquid scintillation counter.

Data set [3] concerns the target T2, THP-1 microsomal ACAT. The data set can be described thus: Bioavailability assessment of ACAT inhibitors by their ex vivo activity (serum of dosed mice on THP-1 microsomal ACAT). It counts as in vivo. The conditions noted are these: female mice, 30 mg/kg per os, 1% CMC-Na 0.2% Tween 80; maximum inhibition by serum. On the procedure: (5) Bioavailability Assessment of ACAT Inhibitors by Their <<ex vivo>> Activity
[…] Blood samples were collected 0.5, 1, 1.5, 2, 6 hour postdose. Serum were harvested after gentle centrifugation and stored at -20.
The following day, 10 μl serum were preincubated at 37 for 5 minutes with 20 μl of THP-1 microsomal ACAT and then incubated 10 minutes with 20 μl of radiolabeled oleoyl-CoA as described above in method (4). The serum is used instead of the drug solution.
ACAT inhibitory activities of the test compounds were shown as maximum inhibition percentages (Imax).

The next data set concerns ACAT of macrophages. The data set is described as follows: In vivo test using peritoneal macrophages in C57BL/6J mice (ACAT inhibition). The arrangement: species or system mouse. The settings on record: female C57BL/6J mice, 30 mg/kg/day per os for 4 days. On the procedure: (6) In Vivo Test Using Peritoneal Macrophages in C57BL/6J Mice
A standard pellet diet fed female C57BL/6J mice were administered at 10 a.m. per os 30 mg/kg/day of oral suspension (1% CMC-Na 0.2% Tween 80) for 4 days. Thioglycollate and [^14 C] cholesterol were injected […], mice were sacrificed for the collection of peritoneal macrophages. Lipid was extracted, formed [^14 C] cholesterol-ester was separated by thin-layer chromatography and radioactivity was counted as described above in method (3).
In vivo ACAT inhibitory activities on macrophages were expressed as percentage of inhibition compared to control group.

As for `CCCCNC(=O)Nc1ccccc1C(=O)NCC1CCN(C(c2ccccc2)c2ccccc2)CC1` [Example 2, 2-(N'-n-Butylureido)-N-[(1-diphenylmethylpiperidin-4-yl)methyl]benzamide], the IC50 was 1 µM in the data set with ACAT of HepG2 microsome and 0.1 µM on ACAT of THP-1 cells. Also, in data set [1], the “macroscopic changes on any organs at autopsy” value (“macroscopic changes” for short) is on record as “no macroscopic changes were observed”.

`CCCCCNC(=O)Nc1ccccc1C(=O)NCC1CCN(C(c2ccccc2)c2ccccc2)CC1` [Example 3, 2-(N'-n-Pentylureido)-N-[(1-diphenylmethylpiperidin-4-yl)methyl]benzamide]: the IC50 in the data set on ACAT of HepG2 microsome turned out to be 0.9 µM; at ACAT of THP-1 cells it was 0.1 µM.

Take `CCCCCCNC(=O)Nc1ccccc1C(=O)NCC1CCN(C(c2ccccc2)c2ccccc2)CC1` [Example 4, 2-(N'-n-Hexylureido)-N-[(1-diphenylmethylpiperidin-4-yl)methyl]benzamide]: the 50% inhibitory concentration (IC50) in the data set with ACAT of HepG2 microsome came out at 0.9 µM; on ACAT of THP-1 cells, 0.09 µM.

Consider `CCCCCCCCNC(=O)Nc1ccccc1C(=O)NCC1CCN(C(c2ccccc2)c2ccccc2)CC1` [Example 6, 2-(N'-n-Octylureido)-N-[(1-diphenylmethylpiperidin-4-yl)methyl]benzamide], for which the results for the IC50 with ACAT of HepG2 microsome and at ACAT of THP-1 cells were 1.6 µM and 0.05 µM, respectively. The “macroscopic changes” value in data set [1] is given as “no macroscopic changes were observed”.

As for `CCCCCCCCCCNC(=O)Nc1ccccc1C(=O)NC1CCN(C(c2ccccc2)c2ccccc2)CC1` [Example 12, 2-(N'-n-Decylureido)-N-(1-diphenylmethylpiperidin-4-yl)benzamide], the IC50 in the data set with ACAT of HepG2 microsome was determined as 8 µM; at ACAT of THP-1 cells, 0.7 µM. Further, the “macroscopic changes” value in data set [1] was “no macroscopic changes were observed”.

With `CCCCCCCNC(=O)Nc1ccc(O)cc1C(=O)NCCC(c1ccccc1)c1ccccc1` [Example 19, 2-(N'-n-Heptylureido)-5-hydroxy-N-(3,3-diphenylpropyl)benzamide], the figures for the IC50 with ACAT of HepG2 microsome and on ACAT of THP-1 cells were 3.6 µM and 0.1 µM, respectively. In addition, the “macroscopic changes” value in data set [1] was “no macroscopic changes were observed”.

In the case of `CCCCCCCNC(=O)Nc1ccccc1C(=O)NCCC1CCN(C(c2ccccc2)c2ccccc2)CC1` [Example 28, 2-(N'-n-Heptylureido)-N-[2-(1-diphenylmethylpiperidin-4-yl)ethyl]benzamide], the IC50 was found to be 1.2 µM with ACAT of HepG2 microsome and 0.1 µM on ACAT of THP-1 cells. For the same compound, the “macroscopic changes” value in data set [1] is listed as “no macroscopic changes were observed”.

On to `CCCCCNC(=O)Nc1ccccc1C(=O)NCCC1CCN(C(c2ccccc2)c2ccccc2)CC1` [Example 29, 2-(N'-n-Pentylureido)-N-[2-(1-diphenylmethylpiperidin-4-yl)ethyl]benzamide], for which the concentration for half-maximal inhibition (IC50) with ACAT of HepG2 microsome was 1.6 µM; on ACAT of THP-1 cells, 0.2 µM.

On to `CCCCCCNC(=O)Nc1ccccc1C(=O)NCCC1CCN(C(c2ccccc2)c2ccccc2)CC1` [Example 30, 2-(N'-n-Hexylureido)-N-[2-(1-diphenylmethylpiperidin-4-yl)ethyl]benzamide], for which the half-maximal inhibitory concentration (IC50) was found to be 1.2 µM in the data set on ACAT of HepG2 microsome and 0.2 µM on ACAT of THP-1 cells.

`CCCCCCCNC(=O)Nc1ccc(N(C)C)cc1C(=O)NC1CCN(C(c2ccccc2)c2ccccc2)CC1` [Example 31, 2-(N'-n-Heptylureido)-5-dimethylamino-N-(1-diphenylmethylpiperidin-4-yl)-benzamide]: the half-maximal inhibitory concentration (IC50) was 0.8 µM with ACAT of HepG2 microsome and 0.2 µM at ACAT of THP-1 cells. Also, the “macroscopic changes” value in data set [1] is recorded as “no macroscopic changes were observed”.

With `CCCCCCCNC(=O)Nc1ccccc1C(=O)NC1CCN(C(c2ccccc2)c2ccccc2)CC1` [Example 45, 2-(N'-n-Heptylureido)-N-(1-diphenylmethylpiperidin-4-yl)benzamide], the half-maximal inhibitory concentration (IC50) in the data set with ACAT of HepG2 microsome was 2.8 µM; at ACAT of THP-1 cells it was 0.8 µM. Further, the “macroscopic changes” value in data set [1] is “no macroscopic changes were observed”.

For `CCCCNC(=O)Nc1ccc(N(C)C)cc1C(=O)NCC1CCN(C(c2ccccc2)c2ccccc2)CC1` [Example 63, 2-(N'-n-Butylureido)-5-dimethylamino-N-[(1-diphenylmethylpiperidin-4-yl)-methyl]-benzamide], the IC50 on THP-1 microsomal ACAT [2] was found to be 0.05 µM. Further, on THP-1 microsomal ACAT [3], the “Imax Ex vivo” value is 68.52%. Besides, the “Inhibition rate (macrophages)” value in the data set on ACAT of macrophages (Experiment 1) stood at 72.3%; in the data set with ACAT of macrophages (Experiment 2), 61.0%.

With `CCCNC(=O)Nc1ccc(N(C)C)cc1C(=O)NCC1CCN(C(c2ccccc2)c2ccccc2)CC1` [Example 66, 5-Dimethylamino-2-(N'-n-propylureido)-N-[(1-diphenylmethylpiperidin-4-yl)methyl]-benzamide], the IC50 on THP-1 microsomal ACAT [2] stood at 0.08 µM. The “Imax Ex vivo” value on THP-1 microsomal ACAT [3] was 77.59%. In addition, in the data set on ACAT of macrophages (Experiment 1), the “Inhibition rate (macrophages)” value worked out at 73.5%.

On to `CCCCNC(=O)Nc1ccc(N2CCOCC2)cc1C(=O)NCC1CCN(C(c2ccccc2)c2ccccc2)CC1` [Example 70, 2-(N'-n-Butylureido)-5-(morpholin-4-yl)-N-[(1-diphenylmethylpiperidin-4-yl)methyl]-benzamide], for which the IC50 at THP-1 microsomal ACAT [2] turned out to be 0.06 µM. Moreover, the “Inhibition rate (macrophages)” value with ACAT of macrophages (Experiment 2) is listed as 73.0%.

As for `CCCCCCCNC(=O)Nc1ccc(N(C)C)cc1C(=O)NCC1CCN(C(c2ccc(OC)cc2)c2ccc(OC)cc2)CC1` [Example 94, 2-(N'-n-Heptylureido)-5-dimethylamino-N-[[1-bis(4-methoxyphenyl)methylpiperidin-4yl]methyl]benzamide], the IC50 on THP-1 microsomal ACAT [2] is 0.1 µM. In addition, at THP-1 microsomal ACAT [3], the “Imax Ex vivo” value is given as 28.35%.

As for `CCCCCCCNC(=O)Nc1ccc(N(C)C)cc1C(=O)NCC1CCN(Cc2ccccc2-c2ccccc2)CC1` [Example 96, 2-(N'-n-Heptylureido)-5-dimethylamino-N-[1-(2-biphenylmethylpiperidin-4-yl)methyl]-benzamide], the 50% inhibitory concentration (IC50) at THP-1 microsomal ACAT [2] is 0.08 µM. Besides, the “Imax Ex vivo” value on THP-1 microsomal ACAT [3] was determined as 20.45%.

In the case of `CCCCCNC(=O)Nc1ccc(N(C)C)cc1C(=O)NCC1CCN(C(c2ccccc2)c2ccccc2)CC1` [Example 100, 5-Dimethylamino-2-(N'-n-pentylureido)-N-[(1-diphenylmethylpiperidin-4-yl)methyl]benzamide], the half-inhibitory concentration (IC50) at THP-1 microsomal ACAT [2] was 0.04 µM. For the same compound, at THP-1 microsomal ACAT [3], the “Imax Ex vivo” value is 39.01%.

With `CCCCNC(=O)Nc1ccc(S(C)(=O)=O)cc1C(=O)NCC1CCN(C(c2ccccc2)c2ccccc2)CC1` [Example 111 (b), 2-(N'-n-butylureido)-5-methylsulfonyl-N-[(1-diphenylmethylpiperidin-4-yl)-methyl]benzamide], at THP-1 microsomal ACAT [2], the half-maximal inhibitory concentration (IC50) was 0.09 µM. Besides, at THP-1 microsomal ACAT [3], the “Imax Ex vivo” value amounted to 63.56%.
